Experimental findings from patent US7148204B2, “Antisense modulation of bcl-x expression” (Isis Pharmaceuticala, Inc., priority 1998, dated 2006) are described below.

One data set relates to human bcl-x mRNA. The data set is described as follows: Northern blot analysis of bcl-x mRNA levels in A549 cells. Type of data set: cell-based.
The test system of the next data set is bcl-x protein. Kind of data set: Western blot analysis of bcl-x protein levels in A549. The format is cell-based, human. As for the experimental part: Western blot analysis (immunoblot analysis) was carried out using standard methods. Generally, cells were harvested 16–20 hours after oligonucleotide treatment, washed once with PBS, suspended in Laemmli buffer (100 μl/well), boiled for 5 minutes and loaded on a 16% SDS-PAGE gel. Gels were run for 1.5 hours at 150 V, and transferred to membrane for western blotting. Appropriate primary antibody directed to bcl-x was used, with a radiolabelled or fluorescently labeled secondary antibody directed against the primary antibody species. Bands were visualized using a PHOSPHORIMAGER™ (Molecular Dynamics, Sunnyvale Calif.).
ISIS 15999 and 16009 were tested for the ability to reduce bcl-x protein levels in A549.
Background: Immunoblotting shows a protein as a band on a membrane.

Another data set deals with bcl-xl protein. The data set is described as follows: Immunoblot of bcl-xl protein in CEM cells. The format is cell-based, human. As for the experimental part: (§1) Postnuclear detergent lysates were prepared as described by Reed et al. (Cancer Res., 1991, 51, 6529–6538), and the protein concentration was determined using a Bradford method protein assay kit (Bio-Rad, Hercules, Calif.). Protein (20 μg) was loaded in each lane, followed by electrophoresis on a 12% sodium dodecyl sulfate-polyacrylamide gel, followed by immunoblotting (Winston et al., 1993). The primary antibody was a 0.4 μg/ml dilution of the mouse monoclonal anti-human bcl-2 (clone 124, Dako, Carpinteria, Calif.), a 4.0 μg/ml dilution of the rabbit polyclonal anti-human bcl-xs/l (Dako), or a 0.3 μg/ml dilution of rabbit polyclonal anti-human Bax (N-20, Santa Cruz Biotechnology, Santa Cruz, Calif.). For development and STORM fluorescent imaging, the secondary antibody was peroxidase-conjugated sheep anti-mouse or donkey anti-rabbit (Amersham, Little Chalfort, UK). Chemiluminescence imaging and quantification were preformed using the STORM instrument and ImageQuant software (Molecular Dynamics, Sunnyvale, Calif.).

In another data set the test system is bcl-2 protein. The data set is described as follows: Immunoblot of bcl-2 protein in CEM cells. The note with it: even at the highest concentration. The format is cell-based, human. As for the experimental part:
as §1

The next data set concerns CEM cells. Kind of data set: Combination index (median-effect) of bcl-x antisense with chemotherapeutic drugs in CEM cells. Type of data set: cell-based, human. From the text: To determine if synergy existed between the bcl-x and the chemotherapeutic drugs dexamethasone or doxorubicin, the median-effect principle of Chou (“The median-effect principle and the combination index for quantification of synergism and antagonism. In Synergism and Antagonism in Chemotherapy, T.-C. Chou and D. Rideout, eds., Academic Press, New York, pp. 61–102) was used to determine dose-effect parameters for the drugs individually and for the combinations of bcl-x antisense plus dexamethasone or bcl-x antisense plus doxorubicin. This method analyzes the shape of the drug dose-response curves for each drug, combination of drugs and quantitates synergism/antagonism at different concentrations. Median effect computer software (CalcuSyn for Windows, Biosoft, Ferguson, Mo.) was used to generate the combination index (CI), where a CI value of <1, =1, >1 indicates synergism (i.e., the effect of drug combination is greater than anticipated from the additive effect of the individual agents), additive effect, and antagonism, respectively.
Treatment of CEM cells with bcl-x antisense oligonucleotide makes the cells more sensitive to killing by doxorubicin or dexamethasone (FIGS. 9A–B). These, or similar drugs, are used frequently for acute lymphocytic leukemia treatment. The use of any of these therapeutic agents in combination with one or more antisense oligonucleotides to bcl-x is within the scope of the present invention. For these experiments, the CEM cells were electroporated with either the bcl-x antisense or control oligonucleotides, cultured for one day, then treated with the indicated concentrations of drug. […] A CI of <0.3 is classified as a strong degree of synergism, and 0.3 to 0.7 is classified as synergism. […] For the doses tested of doxorubicin, the CI ranged from 0.7 to 1.3.

As a reminder, the IC50 is the concentration that inhibits the measured activity by half. The low end stands for inhibition by little substance, the high end for a need for much substance. Consider “TCCCGGTTGCTCTGAGACAT (5-10-5 2'-MOE gapmer, phosphorothioate, further chemistry not given here) [ISIS 15999]”, for which the “reduction of bcl-x mRNA levels” value in the data set on human bcl-x mRNA (25 nM (lowest dose tested)) was “approximately 70%”. In addition, the “inhibition of bcl-x mRNA” value in the data set with human bcl-x mRNA (50 nM to 200 nM) is listed as “greater than 90%”. Moreover, the “bcl-x mRNA at the highest dose” value with human bcl-x mRNA (200 nM) is recorded as “nearly complete ablation”. In the data set with human bcl-x mRNA (dose-response, Northern blot), the IC50 was < 25 nM. Besides, the bcl-x protein levels entry in the data set on bcl-x protein is “reduce bcl-x protein levels in a dose-dependent manner”. Further, the “level of bcl-xl protein” value in the data set with bcl-xl protein is recorded as “dose dependent decrease”. Moreover, the bcl-2 protein levels entry in the data set on bcl-2 protein is recorded as “did not decrease”. Further, the “combination index (CI)” value in the data set on CEM cells (with dexamethasone, three highest doses) is on record as < 0.3; with CEM cells (with dexamethasone, two lower doses), 0.3 to 0.4; with CEM cells (with doxorubicin, doses tested), 0.7 to 1.3.
